The text below walks through data of patent US20250325677A1, “STAT6 DEGRADERS” (Gilead Sciences, Inc., priority 2024, published 2025).

Assay [1] concerns eotaxin-3 release. Description: Human whole blood eotaxin-3 assay (IL-4 stimulated). The format is cell-based. In short, it runs like this: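 Human whole blood was preincubated with compound for 120 min at 37 °C, then stimulated with recombinant human IL-4 (E. coli) at 0.4 nM final for 48 h. Inhibition of eotaxin-3 release gave EC50 values.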
In assay [2] the target is STAT6 (Homo sapiens (Human), UniProt P42226). The assay is described as follows: STAT6 degrader assay (HiBiT, HeLa LgBiT clone 4.14). The format is cell-based. The gist of the method: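 DC50 (nM) comes from luminescence of non-degraded STAT6 read 0.5 h after Nano-GLO addition, following 4-24 h compound exposure at 37° C. Cells were HeLa clone 4.14 expressing LgBiT with a CRISPR HiBiT tag on endogenous STAT6; 50 μM terfenadine set full degradation.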

The mark [3] stands for this setting: human whole blood, IL-4 0.4 nM, 48 hours, geometric mean, given for compounds with >80% Emax, read-out: Eotaxin-3 EC50.
Setting [4] is: HeLa LgBiT clone 4.14, 4-24 h; geometric mean; given for compounds with >80% Emax; read-out: STAT6 degradation DC50.

Where two headings read alike, the source gives them in different places.

Sequence of STAT6 (P42226 whole entry): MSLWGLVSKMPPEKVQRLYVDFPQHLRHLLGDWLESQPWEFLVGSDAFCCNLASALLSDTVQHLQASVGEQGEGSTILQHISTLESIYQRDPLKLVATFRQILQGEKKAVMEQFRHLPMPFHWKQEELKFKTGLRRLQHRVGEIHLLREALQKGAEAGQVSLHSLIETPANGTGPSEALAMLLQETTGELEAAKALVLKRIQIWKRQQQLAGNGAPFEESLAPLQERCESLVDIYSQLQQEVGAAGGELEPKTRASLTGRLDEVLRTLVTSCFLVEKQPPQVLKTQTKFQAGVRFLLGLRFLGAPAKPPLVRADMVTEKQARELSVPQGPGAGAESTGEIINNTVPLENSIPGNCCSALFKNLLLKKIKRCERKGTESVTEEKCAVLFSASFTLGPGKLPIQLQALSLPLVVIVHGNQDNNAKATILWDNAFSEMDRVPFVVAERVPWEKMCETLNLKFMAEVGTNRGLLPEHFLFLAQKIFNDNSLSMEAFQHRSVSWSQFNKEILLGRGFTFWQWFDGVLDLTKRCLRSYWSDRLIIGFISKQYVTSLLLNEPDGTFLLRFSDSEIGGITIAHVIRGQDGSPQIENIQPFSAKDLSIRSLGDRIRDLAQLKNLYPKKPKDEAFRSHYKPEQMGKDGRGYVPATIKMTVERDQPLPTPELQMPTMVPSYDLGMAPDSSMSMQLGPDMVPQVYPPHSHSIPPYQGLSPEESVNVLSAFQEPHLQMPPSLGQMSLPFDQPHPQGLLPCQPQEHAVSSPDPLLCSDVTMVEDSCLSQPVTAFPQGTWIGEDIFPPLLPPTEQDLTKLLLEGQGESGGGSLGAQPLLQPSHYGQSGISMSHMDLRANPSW

By EC50 is commonly meant the concentration giving half of the maximal effect. For orientation: DC50 means the midpoint of the concentration-degradation curve. As to `C[C@H]1CN(Cc2ccc3c(c2)n(C)c(=O)n3C2CCC(=O)NC2=O)CCN1CC1CCN(C(=O)c2ccc(C3CCN([C@@H](C)c4cc5c(-c6ccc(N)nn6)ccnc5n4C)CC3)cc2)CC1` (stereo partly drawn) [Example 3e52, 3-(5-(((S)-4-((1-(4-(1-((S)-1-(4-(6-aminopyridazin-3-yl)-1-methyl-1H-pyrrolo[2,3-b]pyridin-2-yl)ethyl)piperidin-4-yl)benzoyl)piperidin-4-yl)methyl)-3-methylpiperazin-1-yl)methyl)-3-methyl-2-oxo-2,3-dihydro-1H-benzo[d]imidazol-1-yl)piperidine-2,6-dione], in assay [1] (Homo sapiens, 48 h, read-out: Eotaxin-3 EC50 (nM)), the EC50 was determined as 1.5 nM. Moreover, the DC50 in assay [2] (read-out: STAT6 degradation DC50; HeLa LgBiT clone 4.14, 4-24 h; geometric mean; given for compounds with >80% Emax) came to 0.9 nM.
Turning to `C[C@@H](c1cc2c(-c3ccc(N)nc3)ccnc2n1C)N1CCC(c2ccc(C(=O)N3CCC(CN4CCN(Cc5ccc6c(c5)n(CC5CC5)c(=O)n6C5CCC(=O)NC5=O)CC4)CC3)cc2)CC1` (stereo partly drawn) [Example 3e53, 3-(5-((4-((1-(4-(1-((S)-1-(4-(6-aminopyridin-3-yl)-1-methyl-1H-pyrrolo[2,3-b]pyridin-2-yl)ethyl)piperidin-4-yl)benzoyl)piperidin-4-yl)methyl)piperazin-1-yl)methyl)-3-(cyclopropylmethyl)-2-oxo-2,3-dihydro-1H-benzo[d]imidazol-1-yl)piperidine-2,6-dione], the concentration giving a half-maximal response (EC50) in assay [1] (setting [3]) is 7.5 nM. In addition, the DC50 in assay [2] (setting [4]) came to 1.9 nM.
The matching figures for `C[C@H]1CN(Cc2ccc3c(c2)n(CC2CC2)c(=O)n3C2CCC(=O)NC2=O)CCN1CC1CCN(C(=O)c2ccc(C3CCN([C@@H](C)c4cc5c(-c6ccc(N)nc6)ccnc5n4C)CC3)cc2)CC1` (stereo partly drawn) [Example 3e54, 3-(5-(((S)-4-((1-(4-(1-((S)-1-(4-(6-aminopyridin-3-yl)-1-methyl-1H-pyrrolo[2,3-b]pyridin-2-yl)ethyl)piperidin-4-yl)benzoyl)piperidin-4-yl)methyl)-3-methylpiperazin-1-yl)methyl)-3-(cyclo-propylmethyl)-2-oxo-2,3-dihydro-1H-benzo[d]imidazol-1-yl)piperidine-2,6-dione]: 3.6 nM and 0.7 nM.
As for `C[C@H]1CN(Cc2ccc3c(c2)n(C)c(=O)n3C2CCC(=O)NC2=O)CCN1CC1CCN(C(=O)c2ccc(C3CCN([C@@H](C)c4cc5c(-c6ccc(N)nc6C#N)ccnc5n4C)CC3)cc2)CC1` (stereo partly drawn) [Example 3e55, 6-amino-3-(2-((1S)-1-(4-(4-(4-(((2S)-4-((1-(2,6-dioxopiperidin-3-yl)-3-methyl-2-oxo-2,3-dihydro-1H-benzo[d]imidazol-5-yl)methyl)-2-methylpiperazin-1-yl)methyl)piperidine-1-carbonyl)phenyl)-piperidin-1-yl)ethyl)-1-methyl-1H-pyrrolo[2,3-b]pyridin-4-yl)picolinonitrile], in assay [1] (setting [3]), the EC50 was found to be 1.5 nM. For the same compound, the DC50 in assay [2] (setting [4]) was 0.5 nM.
The matching figures for `C[C@H]1CN(Cc2ccc3c(c2)n(C)c(=O)n3C2CCC(=O)NC2=O)CCN1CC1CCN(C(=O)c2ccc(C3CCN([C@@H](C)c4cc5c(-c6ccc(N)cn6)ccnc5n4C)CC3)cc2)CC1` (stereo partly drawn) [Example 3e56, 3-(5-(((S)-4-((1-(4-(1-((S)-1-(4-(5-aminopyridin-2-yl)-1-methyl-1H-pyrrolo[2,3-b]pyridin-2-yl)ethyl)piperidin-4-yl)benzoyl)piperidin-4-yl)methyl)-3-methylpiperazin-1-yl)methyl)-3-methyl-2-oxo-2,3-dihydro-1H-benzo[d]imidazol-1-yl)piperidine-2,6-dione]: 2.6 nM and 0.4 nM.
Take `C[C@H]1CN(Cc2cc3c(cc2F)n(C2CCC(=O)NC2=O)c(=O)n3C2CC2)CCN1CC1CCN(C(=O)c2ccc(C3CCN([C@@H](C)c4cc5c(-c6ccc(N)nc6)ccnc5n4C)CC3)cc2)CC1` (stereo partly drawn) [Example 3e58, 3-(5-(((S)-4-((1-(4-(1-((S)-1-(4-(6-aminopyridin-3-yl)-1-methyl-1H-pyrrolo[2,3-b]pyridin-2-yl)ethyl)piperidin-4-yl)benzoyl)piperidin-4-yl)methyl)-3-methylpiperazin-1-yl)methyl)-3-cyclopropyl-6-fluoro-2-oxo-2,3-dihydro-1H-benzo[d]imidazol-1-yl)piperidine-2,6-dione]: the EC50 in assay [1] (setting [3]) is 1.9 nM. Moreover, the DC50 in assay [2] (setting [4]) came to 0.8 nM.
